Source: ChEMBL document CHEMBL5150010 (J Med Chem, 2021)

Key:
in vitro [1] = conditions: human, liver microsomes
in vitro [2] = conditions: human, liver microsomes; remark: listed apart in the source
in vitro [3] = conditions: human, liver
in vitro [4] = conditions: dog, MDCK cells
[5] = Inhibition of Influenza A virus H5N1-1220 Neuraminidase
[6] = Inhibition of Influenza A virus H9N2-S2 Neuraminidase
in vitro [7] = conditions: human, liver microsomes; remark: listed apart in the source
in vitro [8] = conditions: human, liver microsomes; remark: listed apart in the source
[9] = Inhibition of Influenza A virus H5N1 Neuraminidase
[10] = Inhibition of Influenza A virus H5N2 Neuraminidase
[11] = Half life in Sprague-Dawley rat at 2 mg/kg, iv measured upto 24 hrs by LC-MS/MS analysis; assay type: ADME, organism-based; conditions: in vivo
[12] = Half life in Sprague-Dawley rat at 20 mg/kg, po measured upto 24 hrs by LC-MS/MS analysis; assay type: ADME, organism-based; conditions: in vivo
[13] = Tmax in Sprague-Dawley rat at 2 mg/kg, iv measured upto 24 hrs by LC-MS/MS analysis; assay type: ADME, organism-based; conditions: in vivo
[14] = Tmax in Sprague-Dawley rat at 20 mg/kg, po measured upto 24 hrs by LC-MS/MS analysis; assay type: ADME, organism-based; conditions: in vivo
[15] = Cmax in Sprague-Dawley rat at 2 mg/kg, iv measured upto 24 hrs by LC-MS/MS analysis; assay type: ADME, organism-based; set-up: time < 24 hrs, dose 2 mg/kg, route iv; conditions: in vivo
[16] = Cmax in Sprague-Dawley rat at 20 mg/kg, po measured upto 24 hrs by LC-MS/MS analysis; assay type: ADME, organism-based; set-up: dose 20 mg/kg, time < 24 hrs, route po; conditions: in vivo
[17] = Volume of distribution in Sprague-Dawley rat at 2 mg/kg, iv measured upto 24 hrs by LC-MS/MS analysis; assay type: ADME, organism-based; conditions: in vivo
[18] = Oral bioavailability in Sprague-Dawley rat at 20 mg/kg measured upto 24 hrs by LC-MS/MS analysis; assay type: ADME, organism-based; conditions: in vivo
Cytochrome P450 2C19 = Cytochrome P450 2C19 (Homo sapiens, UniProt P33261); assay type: ADME, microsomes, Liver, Microsome
Cytochrome P450 2C9 = Cytochrome P450 2C9 (Homo sapiens, UniProt P11712); assay type: ADME, microsomes, Liver, Microsome
[19] = Acute toxicity in Kunming mouse assessed as animal death at 1000 mg/kg, IG observed upto 1 week; assay type: organism-based; conditions: in vivo, po, 168 h, time < 1 weeks
[20] = Acute toxicity in Kunming mouse assessed as lethargy at 1000 mg/kg, IG observed upto 1 week; assay type: organism-based; conditions: in vivo, po, 168 h, time < 1 weeks
[21] = Acute toxicity in Kunming mouse assessed as clonic convulsion at 1000 mg/kg, IG observed upto 1 week; assay type: organism-based; conditions: in vivo, po, 168 h, time < 1 weeks
[22] = Acute toxicity in Kunming mouse assessed as anorexia at 1000 mg/kg, IG observed upto 1 week; assay type: organism-based; conditions: in vivo, po, 168 h, time < 1 weeks
[23] = Acute toxicity in Kunming mouse assessed as ruffled fur at 1000 mg/kg, IG observed upto 1 week; assay type: organism-based; conditions: in vivo, po, 168 h, time < 1 weeks
[24] = Acute toxicity in Kunming mouse assessed as increase in body weight at 1000 mg/kg, IG observed upto 1 week; assay type: organism-based; conditions: in vivo, po, 168 h, time < 1 weeks
[25] = Subacute toxicity in Kunming mouse assessed as animal death at 50 mg/kg, IG mesured every second day for 2 weeks; assay type: organism-based; conditions: in vivo, po, 336 h
[26] = Subacute toxicity in Kunming mouse assessed as food consumption at 50 mg/kg, IG mesured every second day for 2 weeks; assay type: organism-based; conditions: in vivo, po, 336 h
[27] = Subacute toxicity in Kunming mouse assessed as water consumption at 50 mg/kg, IG mesured every second day for 2 weeks; assay type: organism-based; conditions: in vivo, po, 336 h
[28] = Subacute toxicity in female Kunming mouse assessed as increase in body weight at 50 mg/kg, IG mesured every second day for 2 weeks; assay type: organism-based; conditions: in vivo, po, 336 h
[29] = Subacute toxicity in male Kunming mouse assessed as increase in body weight at 50 mg/kg, IG mesured every second day for 2 weeks; assay type: organism-based; conditions: in vivo, po, 336 h
Cytochrome P450 1A2 = target: T1, Cytochrome P450 1A2 (Homo sapiens, UniProt P05177)
T1 sequence (P05177 whole entry): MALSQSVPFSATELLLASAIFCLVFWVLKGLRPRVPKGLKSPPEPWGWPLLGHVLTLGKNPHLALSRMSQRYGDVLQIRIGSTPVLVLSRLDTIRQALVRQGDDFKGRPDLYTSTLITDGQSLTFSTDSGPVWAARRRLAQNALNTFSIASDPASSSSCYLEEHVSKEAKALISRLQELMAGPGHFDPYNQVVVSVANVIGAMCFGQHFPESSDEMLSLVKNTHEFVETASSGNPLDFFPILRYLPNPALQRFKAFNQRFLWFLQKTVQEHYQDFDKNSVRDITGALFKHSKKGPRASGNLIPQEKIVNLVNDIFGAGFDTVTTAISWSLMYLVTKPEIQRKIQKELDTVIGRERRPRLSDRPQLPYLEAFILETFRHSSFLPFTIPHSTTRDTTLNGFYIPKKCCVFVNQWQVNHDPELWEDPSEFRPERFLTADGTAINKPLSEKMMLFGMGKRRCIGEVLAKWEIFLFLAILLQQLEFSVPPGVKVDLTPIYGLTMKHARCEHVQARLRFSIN

Cytochrome P450 2D6 = Cytochrome P450 2D6 (Homo sapiens, UniProt P10635)
Cytochrome P450 3A4 = Cytochrome P450 3A4 (Homo sapiens, UniProt P08684)
[30] = rat, in vivo, po, 20 mg/kg, 24 h
in vivo [31] = conditions: Sprague-Dawley, rat, iv, 2 mg/kg
in vivo [32] = conditions: Sprague-Dawley, rat, po, 20 mg/kg
in vivo [33] = conditions: Sprague-Dawley, rat, iv, 2 mg/kg; remark: listed apart in the source

Chain of Cytochrome P450 2D6 (P10635 whole entry): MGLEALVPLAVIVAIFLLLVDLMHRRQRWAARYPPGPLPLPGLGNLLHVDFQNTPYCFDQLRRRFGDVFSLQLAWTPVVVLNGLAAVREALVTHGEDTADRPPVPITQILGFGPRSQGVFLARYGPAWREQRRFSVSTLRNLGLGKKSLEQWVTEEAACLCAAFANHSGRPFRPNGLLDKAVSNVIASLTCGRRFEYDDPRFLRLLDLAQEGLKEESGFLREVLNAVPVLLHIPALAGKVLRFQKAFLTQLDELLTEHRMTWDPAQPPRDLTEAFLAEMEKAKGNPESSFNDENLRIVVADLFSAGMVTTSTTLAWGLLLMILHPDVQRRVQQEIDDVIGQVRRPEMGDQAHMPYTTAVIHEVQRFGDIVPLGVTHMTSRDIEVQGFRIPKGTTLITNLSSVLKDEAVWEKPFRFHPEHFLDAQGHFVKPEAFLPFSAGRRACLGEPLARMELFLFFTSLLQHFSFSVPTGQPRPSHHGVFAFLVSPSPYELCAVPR
Chain of Cytochrome P450 3A4 (P08684 whole entry): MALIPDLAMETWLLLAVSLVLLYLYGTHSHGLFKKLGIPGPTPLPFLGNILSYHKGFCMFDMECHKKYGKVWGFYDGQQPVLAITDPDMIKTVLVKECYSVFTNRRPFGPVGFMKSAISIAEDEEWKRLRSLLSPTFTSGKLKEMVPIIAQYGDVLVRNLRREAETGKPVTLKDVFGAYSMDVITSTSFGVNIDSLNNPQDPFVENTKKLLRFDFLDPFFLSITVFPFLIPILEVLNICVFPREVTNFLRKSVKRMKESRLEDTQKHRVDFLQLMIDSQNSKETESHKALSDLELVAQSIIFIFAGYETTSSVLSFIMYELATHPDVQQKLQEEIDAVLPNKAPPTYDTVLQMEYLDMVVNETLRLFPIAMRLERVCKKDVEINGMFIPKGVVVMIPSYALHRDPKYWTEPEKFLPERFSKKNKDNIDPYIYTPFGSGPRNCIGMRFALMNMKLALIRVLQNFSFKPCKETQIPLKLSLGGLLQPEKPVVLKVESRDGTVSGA
Chain of Cytochrome P450 2C9 (P11712 whole entry): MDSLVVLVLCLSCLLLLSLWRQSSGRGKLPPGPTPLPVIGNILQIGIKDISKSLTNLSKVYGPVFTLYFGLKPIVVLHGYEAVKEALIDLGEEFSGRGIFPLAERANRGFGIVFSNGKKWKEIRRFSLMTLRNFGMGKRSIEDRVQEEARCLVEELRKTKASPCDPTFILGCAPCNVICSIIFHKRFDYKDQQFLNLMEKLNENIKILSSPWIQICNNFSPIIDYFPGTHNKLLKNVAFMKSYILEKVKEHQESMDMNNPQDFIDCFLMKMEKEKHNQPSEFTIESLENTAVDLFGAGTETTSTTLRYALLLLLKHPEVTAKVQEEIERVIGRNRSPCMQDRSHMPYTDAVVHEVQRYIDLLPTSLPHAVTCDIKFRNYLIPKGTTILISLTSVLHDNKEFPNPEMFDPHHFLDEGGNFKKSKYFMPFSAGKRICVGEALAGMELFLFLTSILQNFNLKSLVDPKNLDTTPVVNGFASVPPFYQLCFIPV
Chain of Cytochrome P450 2C19 (P33261 whole entry): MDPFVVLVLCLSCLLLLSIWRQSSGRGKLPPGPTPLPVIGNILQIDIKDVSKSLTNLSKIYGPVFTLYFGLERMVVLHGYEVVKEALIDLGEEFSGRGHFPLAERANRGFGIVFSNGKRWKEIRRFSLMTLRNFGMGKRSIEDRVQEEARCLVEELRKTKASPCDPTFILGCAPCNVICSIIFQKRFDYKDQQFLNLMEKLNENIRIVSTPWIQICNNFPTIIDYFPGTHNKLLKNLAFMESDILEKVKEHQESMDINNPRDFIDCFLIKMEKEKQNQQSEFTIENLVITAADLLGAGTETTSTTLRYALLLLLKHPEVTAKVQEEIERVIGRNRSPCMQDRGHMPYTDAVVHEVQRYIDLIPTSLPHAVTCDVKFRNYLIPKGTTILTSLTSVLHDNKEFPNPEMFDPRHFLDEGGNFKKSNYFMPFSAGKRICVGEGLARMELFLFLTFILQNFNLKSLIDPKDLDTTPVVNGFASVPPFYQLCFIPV

Compound: O=C(O)Cc1ccccc1Nc1c(Cl)cccc1Cl [DICLOFENAC]
- half-life (in vitro [1]): 8.2 min
- microsomal CLint (in vitro [2]): 168 µL/min/mg
- CLint scaled (in vitro [3]): 151 mL/min/kg

Compound: CCC(CC)O[C@@H]1C=C(C(=O)O)C[C@H](NCc2ccc3c(c2)Cc2ccccc2-3)[C@H]1NC(C)=O
- CC50 at 48 h (in vitro [4]): 250 µM

Compound: CCC(CC)O[C@@H]1C=C(C(=O)O)C[C@H](NCc2ccc(-c3ccccc3)cc2)[C@H]1NC(C)=O
- IC50 [5]: 1.9 nM
- IC50 [6]: 580 nM

Compound: C[C@]12CC[C@H]3[C@@H](CCC4=CC(=O)CC[C@@]43C)[C@@H]1CC[C@@H]2O [TESTOSTERONE]
- half-life (in vitro [1]): 18.8 min
- microsomal CLint (in vitro [2]): 73.6 µL/min/mg
- CLint scaled (in vitro [3]): 66.2 mL/min/kg
- remaining at 1 h (in vitro [7]): 9.8%
- remaining at 1 h (in vitro [8]): 87.2%

Compound: CCC(CC)O[C@@H]1C=C(C(=O)O)C[C@H](NCc2ccc(Sc3ccccc3)cc2)[C@H]1NC(C)=O
- IC50 [9]: 0.96 nM
- IC50 [10]: 869 nM

Compound: CCC(CC)O[C@@H]1C=C(C(=O)O)C[C@H](NCc2ccc3c(c2)c2ccccc2n3CC)[C@H]1NC(C)=O
- CC50 at 48 h (in vitro [4]): 250 µM

Compound: CCC(CC)O[C@@H]1C=C(C(=O)O)C[C@H](NCc2ccc3oc4ccccc4c3c2)[C@H]1NC(C)=O
- CC50 at 48 h (in vitro [4]): 250 µM

Compound: CCC(CC)O[C@@H]1C=C(C(=O)O)C[C@H](N)[C@H]1NC(C)=O [OSELTAMIVIR CARBOXYLATE]
- CC50 at 48 h (in vitro [4]): 250 µM

Compound: CCC(CC)O[C@@H]1C=C(C(=O)O)C[C@H](NCc2c3ccccc3cc3ccccc23)[C@H]1NC(C)=O
- CC50 at 48 h (in vitro [4]): 250 µM

Compound: CCC(CC)O[C@@H]1C=C(C(=O)O)C[C@H](NCc2ccc3sc4ccccc4c3c2)[C@H]1NC(C)=O
- half-life [11]: 44.6 min
- half-life [12]: 61.8 min
- Tmax [13]: 4.98 min
- Tmax [14]: 30 min
- Cmax [15]: 13000 ng/mL
- Cmax [16]: 6300 ng/mL
- Vd [17]: 0.161 L/kg
- bioavailability [18]: 13.7%
- IC50 (Cytochrome P450 2C19): > 100 µM
- IC50 (Cytochrome P450 2C9): 60.8 µM
- Activity [19]: Non-Toxic
- Activity [20]: Non-Toxic
- Activity [21]: Non-Toxic
- Activity [22]: Non-Toxic
- Activity [23]: Non-Toxic
- Activity [24]: Toxic
- Activity [25]: Non-Toxic
- Activity [26]: Non-Toxic
- Activity [27]: Non-Toxic
- Activity [28]: Toxic
- Activity [29]: Toxic
- IC50 (Cytochrome P450 1A2): 89.4 µM
- IC50 (Cytochrome P450 2D6): 58.9 µM
- IC50 (Cytochrome P450 3A4): > 100 µM
- AUC [30]: 5854 ng·h/mL
- AUC(0-t) at 24 h (in vivo [31]): 4280 ng·h/mL
- AUC(0-t) at 24 h (in vivo [32]): 5830 ng·h/mL
- AUC(0-inf) at 24 h (in vivo [33]): 4290 ng·h/mL
- CC50 at 48 h (in vitro [4]): 250 µM
- half-life (in vitro [1]): > 145 min
- microsomal CLint (in vitro [2]): < 9.6 µL/min/mg
- CLint scaled (in vitro [3]): < 8.6 mL/min/kg
- remaining at 1 h (in vitro [7]): 99.6%
- remaining at 1 h (in vitro [8]): 84.7%
